Patent US12589087B2, “Enantiomer selective action on neurotransmission” (The Board of Trustees of the Leland Stanford Junior …, priority 2021, dated 2026)

How the values were obtained:
human glutaminase GLS1 = target: T1, human glutaminase GLS1 (Homo sapiens, UniProt O94925); assay: Catalysis of 2MeGln hydrolysis by GLS1 glutaminase; assay type: biochemical; settings: 10 mM substrate
T1 construct: purchased Sigma SRP0516
T1 sequence (O94925 55-669): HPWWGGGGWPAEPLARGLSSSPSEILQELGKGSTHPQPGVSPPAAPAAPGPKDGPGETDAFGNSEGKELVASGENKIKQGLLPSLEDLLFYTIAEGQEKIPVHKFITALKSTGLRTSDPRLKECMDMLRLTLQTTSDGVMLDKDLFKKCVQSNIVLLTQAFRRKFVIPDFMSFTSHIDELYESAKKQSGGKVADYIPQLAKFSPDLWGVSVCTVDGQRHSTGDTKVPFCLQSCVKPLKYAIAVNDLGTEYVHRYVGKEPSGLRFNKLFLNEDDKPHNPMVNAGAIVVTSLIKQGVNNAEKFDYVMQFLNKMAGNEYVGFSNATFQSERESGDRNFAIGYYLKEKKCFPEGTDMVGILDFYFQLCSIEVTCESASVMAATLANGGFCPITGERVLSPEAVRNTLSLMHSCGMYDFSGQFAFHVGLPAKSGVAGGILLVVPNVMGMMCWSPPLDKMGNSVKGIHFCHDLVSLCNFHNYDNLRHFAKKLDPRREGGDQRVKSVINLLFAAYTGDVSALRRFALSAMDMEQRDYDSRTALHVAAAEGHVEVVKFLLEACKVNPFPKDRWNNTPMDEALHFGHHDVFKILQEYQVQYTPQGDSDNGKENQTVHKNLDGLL
Experimental: The procedure was adapted from an existing protocol. To a reaction mixture in a 1.5 mL microcentrifuge tube containing 10 mM rac-2MeGln or L-Gln-^13C2 in 100 mM phosphate pH 7.4 buffer made in 20% atom ^18O water, recombinant GLS1 (final concentration: 5 ng/mL) was added. The tubes were incubated in a preheated thermomixer at 37° C. and periodically shaken at 600 rpm (30 s on, 30 s off). 5 μL aliquots were collected in triplicate every 5 min and immediately diluted with 195 μL of cold 60% ACN containing 10 μM Glu-d5 and Gln-d5 as internal standards in a 96 well plate. After collecting all samples, the plate was shaken at 1000 rpm for 5 min at room temperature, and then stored at −80° C. Before analysis the plate was thawed and 10 μL aliquots of the extracted reaction mixtures were diluted with 190 μL of 90% acetonitrile.
The quantification of the newly formed 2MeGlu in the presence of the preexisting trace amounts was performed in the following way. Peak area ratio of Glu-^13C2 to Glu-^13C2^18O was calculated in all samples containing Glu-^13C2. The mean ratio value was then applied to calculate the hypothetical peak area of the newly formed 2MeGlu based on the directly measured 2MeGlu-^18O peak area. The ratio of the newly formed 2MeGlu peak area and the total 2MeGlu peak area was applied to calculate the concentration of the newly formed 2MeGlu from the total 2MeGlu concentration determined directly using the calibration curve.

Line 61 mice = assay: Transgenic α-synuclein mouse model, tapered beam test; assay type: in vivo
Text: Line 61 mice overexpress human α-synuclein under control of the mouse Thy-1 promoter. The transgene is X-linked so females have variable transgene expression; for this reason, we focused on male mice. […] Categorical data from the tapered beam task were unblinded and analyzed by X square test (P<0.005).

Line 41 mice = assay: Transgenic Aβ model of AD, behavior tests; assay type: in vivo; settings: 10 mg/kg/d IP for 6 weeks
Experimental: Cerebral Aβ accumulation is a core feature of AD. Since memantine, a glutamate receptor subtype antagonist is an approved treatment for people with AD, we tested whether our false glutamatergic neurotransmitter might be therapeutic in a transgenic model of AD. Four month old Line 41 male mice were treated with S-2MeGlu at 10 mg/kg/d IP for 6 weeks with behavior tested using activity chamber, Y maze, novel object and novel place recognition, Morris water maze, and fear conditioning.

MPTP model of PD = assay: MPTP model of PD, fine motor kinematic score; assay type: in vivo, mouse; settings: 50 mg/kg/d IP, days −5 to 14
Experimental: Five groups of mice were treated with 40 mg/kg/d MPTP IP on days 1 and 2 and two concentrations of two test agents IP from days −5 to day 14 (FIG. 22). One group received vehicle, two groups received 5 or 50 mg/kg/d S-2MeGlu, and two groups received 5 or 50 mg/kg/d R-4APA. […] The high-precision fine motor kinematic protocol quantifies over 100 indices of gait and balance and integrates them into an overall kinematic score; higher score indicates greater impairment. […] Mice were sacrificed on day 15 and striatal dopamine as well as its major metabolites were quantified by HPLC with electrochemical detection.

Compound | apparent GLS1 reaction rate, lower compared to that of Gln (human glutaminase GLS1) | apparent reaction rate of GLS1 hydrolysis (human glutaminase GLS1; 5 ng/mL enzyme, phosphate pH 7.4) [µM/min] | body weight or deaths (Line 61 mice; 5 or 50 mg/kg/d IP, seven days) | motor function, tapered beam (Line 61 mice; 7 days IP, high dose (50 mg/kg/d) S-2MeGlu, either dose (5 or 50 mg/kg/d) R-4APA) | α-synuclein accumulation in brain by immunohistochemistry vs vehicle (Line 61 mice; Line 61 mice) | Aβ accumulation by immunohistochemistry (Line 41 mice) | behavior tests (activity chamber, Y maze, novel object and place recognition, Morris water maze, fear conditioning) (Line 41 mice) | body weights or deaths (Line 41 mice) | rescue of motor deficit from MPTP (overall kinematic score) (MPTP model of PD)
CC(N)(CCC(N)=O)C(=O)O (racemic) [rac-2MeGln, rac-2-methylglutamine] | approximately 35 fold | 1.9 |  |  |  |  |  |  | 
C[C@](N)(CCC(=O)O)C(=O)O [(S)-2MeGlu, (S)-2-methylglutamic acid] |  |  | no change in body weight or deaths | improved motor function similar to WT mice | no significant change | no change in Aβ accumulation | only rescued performance in the Y maze | no difference in body weights or any deaths | significantly rescued the motor deficit from MPTP
